These results are taken from US20050287565A1, “Methods, compositions and compound assays for inhibiting amyloid-beta protein production” (priority 2004, published 2005).

Structures are written as SMILES.

What all share (assay type): cell-based
For one assay, the target named is TACR1 (Homo sapiens, UniProt P25103). Nature of the assay: TACR1 agonist and antagonist validation in Hek293 APPwt cells, amyloid beta ELISA. Particulars: Hek293 APPwt cells infected with Ad5/TACR1_v1.
The subject of assay [1] is ADRA1A. Nature of the assay: ADRA1A agonist and antagonist validation in SH-SY5Y APPwt cells, amyloid beta ELISA. On the procedure:
(§1) To identify novel drug targets that change the APP processing, stable cell lines over expressing APP are made by transfecting Hek293 or SH-SY5Y cells with APP770 wt cDNA cloned into pcDNA3.1, followed by selection with G418 for 3 weeks. At this time point colonies are picked and stable clones are expanded and tested for their secreted amyloid-beta peptide levels. The cell lines designated as “Hek293 APPwt” and “SH-SY5Y APPwt” are used in the assays.
SH-SY5Y APPwt Assay: Cells are seeded in collagen-coated plates at a cell density of 15000 cells/well (384 well plate) in Dulbecco's MEM with Glutamax I+15% FBS HI+non-essential amino acids+Geneticin 500 μg/ml. The cells are differentiated towards the neuronal phenotype by adding 9-cis retinoic acid to a final concentration of 1 μM on day 1, day 3, day 5 and day 8. On day 9, the cells are infected with 1 μl of adenovirus (corresponding to an average multiplicity of infection (MOI) of 120 respectively). The following day, the virus is washed away and DMEM 25 mM Hepes 10% FBS is added to the cells. Amyloid beta peptides are allowed to accumulate for 24 h.
(§2) ELISA: The ELISA plate is prepared by coating with a capture antibody (JRF/cAbeta42/26) (the antibody recognizes a specific epitope on the C-terminus of Abeta 1-42; obtained from M Mercken, Johnson and Johnson Pharmaceutical Research and Development, B-2340 Beerse, Belgium) overnight in buffer 42 (Table 2) at a concentration of 2.5 μg/ml. The excess capture antibody is washed away the next morning with PBS and the ELISA plate is then blocked overnight with casein buffer (see Table 2) at 4° C. Upon removal of the blocking buffer, 30 μl of the sample is transferred to the ELISA plate and incubated overnight at 4° C. After extensive washing with PBS-Tween20 and PBS, 30 μl of the horseradish peroxidase (HRP) labeled detection antibody (Peroxidase Labeling Kit, Roche), JRF/AbetaN/25-HRP (obtained from M Mercken, Johnson and Johnson Pharmaceutical Research and Development, B-2340 Beerse, Belgium) is diluted 1/5000 in buffer C (see Table 2) and added to the wells for another 2 h. Following the removal of excess detection antibody by a wash with PBS-Tween20 and PBS, HRP activity is detected via addition of luminol substrate (Roche), which is converted into a chemiluminescent signal by the HRP enzyme.
(§3) In addition, for the SH-SY5Y APPwt assay, the samples are also analyzed in an amyloid beta x-42 ELISA. This ELISA detects all amyloid beta peptide species ending at position 42, comprising 1-42, 11-42 and 17-42 (p3), which originate respectively from BACE activity at position 1 and 11, and alpha secretase activity at position 17. Thus, in addition to the amyloidogenic pathway, the non-amyloidogenic pathway is also monitored. […]

Assay [2] has as its system ADRA1A. Nature of the assay: ADRA1A agonist and antagonist validation in Hek293 APPwt cells, amyloid beta ELISA.
Text: as §1
Hek293 APPwt Assay: Cells seeded in collagen-coated plates at a cell density of 15000 cells/well (384 well plate) in DMEM (10% FBS), are infected 24 h later with 1 μl or 0.2 μl of adenovirus (corresponding to an average multiplicity of infection (MOI) of 120 and 24 respectively). The following day, the virus is washed away and DMEM (25 mM Hepes; 10% FBS) is added to the cells. Amyloid-beta peptides are allowed to accumulate during 24 h.
as §2
as §3, with “monitored. The protocol for the Abeta x-42 ELISA is identical to the protocol for the Abeta 1-42 ELISA, except that a HRP labeled 4G8 antibody (Signet; the antibody recognizes a specific epitope in the center of the Abeta peptides) is used as detection antibody.” for “monitored.”

Where [3] appears, read: SH-SY5Y APPwt cells infected with Ad5/ADRA1A_v1, increasing amounts of agonist, 24 h, concentration dependent.
Setting [4] is: Hek293 APPwt cells infected with Ad5/ADRA1A_v1, increasing amounts of agonist, 24 h, concentration dependent.

Chain of TACR1 (P25103 whole entry): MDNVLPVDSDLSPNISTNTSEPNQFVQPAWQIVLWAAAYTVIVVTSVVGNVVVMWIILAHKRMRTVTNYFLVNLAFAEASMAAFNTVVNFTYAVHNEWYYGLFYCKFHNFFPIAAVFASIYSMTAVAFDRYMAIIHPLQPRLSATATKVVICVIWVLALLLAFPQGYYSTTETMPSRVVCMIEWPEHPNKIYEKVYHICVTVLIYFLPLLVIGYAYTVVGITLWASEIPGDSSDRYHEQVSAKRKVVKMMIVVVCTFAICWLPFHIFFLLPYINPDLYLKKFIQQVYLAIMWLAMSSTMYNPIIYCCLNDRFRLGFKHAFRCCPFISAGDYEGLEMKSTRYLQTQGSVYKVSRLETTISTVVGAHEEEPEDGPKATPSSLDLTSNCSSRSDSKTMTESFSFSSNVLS
Method for TACR1: ELISA: The ELISA plate is prepared by coating with a capture antibody (JRF/cAbeta42/26) (the antibody recognizes a specific epitope on the C-terminus of Abeta 1-42; obtained from M Mercken, Johnson and Johnson Pharmaceutical Research and Development, B-2340 Beerse, Belgium) overnight in buffer 42 (Table 2) at a concentration of 2.5 μg/ml. The excess capture antibody is washed away the next morning with PBS and the ELISA plate is then blocked overnight with casein buffer (see Table 2) at 4° C. Upon removal of the blocking buffer, 30 μl of the sample is transferred to the ELISA plate and incubated overnight at 4° C. […]
In addition, for the SH-SY5Y APPwt assay, the samples are also analyzed in an amyloid beta x-42 ELISA. […] Thus, in addition to the amyloidogenic pathway, the non-amyloidogenic pathway is also monitored. […]

Consider `Cl.FC(F)(F)c1cc(CO[C@H]2CCCN[C@H]2c2ccccc2)cc(C(F)(F)F)c1` [L-733,060 hydrochloride], for which the “observed Substance P EC50 values with increasing concentration of the antagonist” value on TACR1 (amyloid beta x-42 ELISA, 0.1, 1 and 10 μM antagonist) is given as “increased”. Also, on TACR1 (substance P plus fixed 0.1, 1 and 10 μM antagonist, 24 h, concentration dependent), the “amount of amyloid beta x-42 secreted in the medium” value is “reduces”.

As for `CC(C)(Cc1c[nH]c2ccc(Cl)cc12)NCCOc1ccccc1OCC1CC1.Cl` [RS-17053 hydrochloride], the “amount of amyloid beta 1-42 secreted in the medium” value in the assay with ADRA1A [1] (SH-SY5Y APPwt cells infected with Ad5/ADRA1A_v1, A61603 plus fixed 0.1 and 1 μM antagonist, 24 h, concentration dependent) is “reduced”. For the same molecule, the “observed EC50 values (agonist A61603) with increasing concentration of the antagonist” value in the assay with ADRA1A [1] (SH-SY5Y APPwt cells, amyloid beta 1-42 ELISA, 0.1 and 1 μM antagonist) was “increased”; in the assay on ADRA1A [2] (Hek293 APPwt cells, amyloid beta x-42 ELISA, 0.1 and 1 μM antagonist) it was “increased”. In the assay with ADRA1A [2] (Hek293 APPwt cells infected with Ad5/ADRA1A_v1, A61603 plus fixed 0.1 and 1 μM antagonist, 24 h, concentration dependent), the “amount of amyloid beta x-42 secreted in the medium” value is given as “reduced”.

As for `Br.CS(=O)(=O)Nc1c(O)ccc2c1CCCC2C1=NCCN1` (stereo not shown) [A61603], in the assay with ADRA1A [1] (setting [3]), the “amount of amyloid beta 1-42 secreted in the medium” value is listed as “increased” and the “amount of amyloid beta x-42 secreted in the medium” value is reported as “increased”. In addition, in the assay on ADRA1A [2] (setting [4]), the “amount of amyloid beta 1-42 secreted in the medium” value is “decreased” and the “amount of amyloid beta x-42 secreted in the medium” value was “increased”.
